The target in the assay is STING (Homo sapiens, UniProt Q86WV6). Kind of assay: STING antagonist activity, cell-based ISG54 promoter-reporter luciferase measurement of IRF activity (THP-1 dual / RAW-ISG cells). As to conditions: Antagonist Activity of Exemplary Compounds; cell line and agonist not given; read-out: IC50. In outline:
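THP-1 dual or RAW-ISG cells (50,000/well) pretreated 1 h with compound (10 to 0.01 uM), then stimulated with SB 11285 (30 nM or 1 μM) or 2′3′-cGAMP (10 ug/mL or lipo mixture) for 18–20 h at 37° C. IRF-driven luciferase read by Quanti-Luc; % inhibition versus untreated or DMSO wells, IC50 by curve fit.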

Among the data in patent publication US20220168309A1 (F-STAR THERAPEUTICS, INC., priority 2019, published 2022) are IC50 values, retold here.

STING, sequence (Q86WV6 whole entry): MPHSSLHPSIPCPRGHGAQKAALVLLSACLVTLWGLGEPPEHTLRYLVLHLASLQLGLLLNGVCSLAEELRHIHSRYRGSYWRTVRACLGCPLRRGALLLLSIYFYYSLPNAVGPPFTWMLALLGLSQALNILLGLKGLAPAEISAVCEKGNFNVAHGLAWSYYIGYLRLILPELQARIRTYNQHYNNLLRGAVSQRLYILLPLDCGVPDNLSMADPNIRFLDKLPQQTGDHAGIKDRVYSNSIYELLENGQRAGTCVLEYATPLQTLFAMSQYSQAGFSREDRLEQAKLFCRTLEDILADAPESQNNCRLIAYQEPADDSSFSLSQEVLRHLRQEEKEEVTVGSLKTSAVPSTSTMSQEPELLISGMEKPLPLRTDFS

Regarding `Cc1nc2nc(Cl)nc(S(=O)(=O)C(C)C)c2n1CCCCCCCCCCCCCCCC(=O)OC[C@@H]1COC(C)(C)O1` [Compound 134, (S)-(2,2-dimethyl-1,3-dioxolan-4-yl)methyl 16-(2-chloro-6-(isopropylsulfonyl)-8-methyl-7H-purin-7-yl)hexadecanoate], the IC50 (in general, the concentration that inhibits the measured activity by half) fell in the range of 1 to 1000 nM.

With `COC(=O)CCCCCCCCCCCCCCCn1c(O)nc2nc(Cl)nc(Cl)c21` [Compound 52, methyl 16-(2,6-dichloro-8-oxo-8,9-dihydro-7H-purin-7-yl)hexadecanoate], the IC50 was above 20000 nM. On to `CCCCCCCCCCCCCCC(C(=O)OCc1ccc(OC)cc1)n1cnc2c(Cl)nc(Cl)nc21` (stereo not drawn) [Compound 15, 4-methoxybenzyl 2-(2,6-dichloro-9H-purin-9-yl)hexadecanoate], for which the IC50 is above 20000 nM.

Consider `CC(=O)NCCCCCCCCCCCCCCCCn1c(C)nc2nc(Cl)nc(Cl)c21` [Compound 166, N-(16-(2,6-dichloro-8-methyl-7H-purin-7-yl)hexadecyl)acetamide], for which the IC50 lay within 1 to 1000 nM. Next, `COC(=O)CCCCCCCCCCCCCCCn1c(C)nc2nc(Cl)nc([S+]([O-])C(C)C)c21` (stereo not drawn) [Compound 128, methyl 16-(2-chloro-6-(isopropylsulfinyl)-8-methyl-7H-purin-7-yl)hexadecanoate]: 1 to 1000 nM; `OCCCCCCCCCCn1cnc2nc(Cl)nc(Cl)c21` [Compound 40, 10-(2,6-dichloro-7H-purin-7-yl)decan-1-ol]: 1 to 1000 nM. Consider `Cc1nc2nc(Cl)nc(Cl)c2n1CCCCCCCCCCCCn1c(C)nc2nc(Cl)nc(Cl)c21` [Compound 59, 1,12-bis(2,6-dichloro-8-methyl-7H-purin-7-yl)dodecane], for which the IC50 lay in the range of 1 to 1000 nM.

On to `Cc1nc2nc(Cl)nc(Cl)c2n1CCCCCCCCCCCCCCCCP(=O)(O)O` [Compound 110, (16-(2,6-dichloro-8-methyl-7H-purin-7-yl)hexadecyl)phosphonic acid], for which the IC50 was above 20000 nM. With `COC(=O)CCCCCCCCCCCCCCCn1cnc2nc(Cl)nc(O)c21` [Compound 11, methyl 16-(2-chloro-6-hydroxy-7H-purin-7-yl)hexadecanoate], the IC50 was 10000 to 20000 nM. Take `COC(=O)CCCCCCCCCn1c(C)nc2nc(Cl)nc(Cl)c21` [Compound 123, Methyl 10-(2,6-dichloro-8-methyl-7H-purin-7-yl)decanoate]: the IC50 lay within 1000 to 5000 nM. Regarding `CCCCCCCCCCCCCCCCn1c(CO)nc2nc(Cl)nc(Cl)c21` [Compound 119, (2,6-dichloro-7-hexadecyl-7H-purin-8-yl)methanol], the IC50 was 1 to 1000 nM.

Regarding `CCCCCCCCC(C(=O)O)n1cnc2c(Cl)nc(Cl)nc21` (stereo not drawn) [Compound 19, 2-(2,6-dichloro-9H-purin-9-yl)decanoic acid], the IC50 fell in the range of 5000 to 10000 nM. For `COC(=O)CCCC(=O)N1CNc2nc(Cl)nc(Cl)c21` [Compound 80, methyl 5-(2,6-dichloro-8,9-dihydro-7H-purin-7-yl)-5-oxopentanoate], the IC50 was above 20000 nM. With `COC(=O)CCCn1cnc2nc(Cl)nc(Cl)c21` [Compound 37, methyl 4-(2,6-dichloro-7H-purin-7-yl)butanoate], the half-inhibitory concentration (IC50) is 5000 to 10000 nM. Regarding `COC(=O)CCCCCCN(C)CCCCCCCCn1c(C)nc2nc(Cl)nc(Cl)c21` [Compound 141, Methyl 7-((8-(2,6-dichloro-8-methyl-7H-purin-7-yl)octyl)(methyl)amino)heptanoate], the IC50 was in the range of 1 to 1000 nM. `COC(=O)CCCn1c(C)nc2nc(Cl)nc(S(=O)(=O)C(C)C)c21` [Compound 118, methyl 4-(2-chloro-6-(isopropylsulfonyl)-8-methyl-7H-purin-7-yl)butanoate]: the IC50 is 1000 to 5000 nM. Next, `O=C(O)CCCCCCCCCCCCCCCn1cnc2nc(Cl)nc(O)c21` [Compound 10, 16-(2-chloro-6-hydroxy-7H-purin-7-yl)hexadecanoic acid]: above 20000 nM. Next, `Cc1nc2nc(Cl)nc(Cl)c2n1CCCCCCCCCCCCCCCC(=O)O` [Compound 72, 16-(2,6-dichloro-8-methyl-7H-purin-7-yl)hexadecanoic acid]: 10000 to 20000 nM.
